The structures appear in SMILES notation.

Common to all, as to test: Enzyme Assay
The target in test [1] is PIK3CA (human) (UniProt P42336).
Test [2] concerns the target PIK3CD (Human) (UniProt O00329).
For test [3], the target named is PIK3CB (Human) (UniProt P42338).
The target of test [4] is PIK3CG (human) (UniProt P48736).
Chain of PIK3CG (human) (P48736 whole entry, looked up): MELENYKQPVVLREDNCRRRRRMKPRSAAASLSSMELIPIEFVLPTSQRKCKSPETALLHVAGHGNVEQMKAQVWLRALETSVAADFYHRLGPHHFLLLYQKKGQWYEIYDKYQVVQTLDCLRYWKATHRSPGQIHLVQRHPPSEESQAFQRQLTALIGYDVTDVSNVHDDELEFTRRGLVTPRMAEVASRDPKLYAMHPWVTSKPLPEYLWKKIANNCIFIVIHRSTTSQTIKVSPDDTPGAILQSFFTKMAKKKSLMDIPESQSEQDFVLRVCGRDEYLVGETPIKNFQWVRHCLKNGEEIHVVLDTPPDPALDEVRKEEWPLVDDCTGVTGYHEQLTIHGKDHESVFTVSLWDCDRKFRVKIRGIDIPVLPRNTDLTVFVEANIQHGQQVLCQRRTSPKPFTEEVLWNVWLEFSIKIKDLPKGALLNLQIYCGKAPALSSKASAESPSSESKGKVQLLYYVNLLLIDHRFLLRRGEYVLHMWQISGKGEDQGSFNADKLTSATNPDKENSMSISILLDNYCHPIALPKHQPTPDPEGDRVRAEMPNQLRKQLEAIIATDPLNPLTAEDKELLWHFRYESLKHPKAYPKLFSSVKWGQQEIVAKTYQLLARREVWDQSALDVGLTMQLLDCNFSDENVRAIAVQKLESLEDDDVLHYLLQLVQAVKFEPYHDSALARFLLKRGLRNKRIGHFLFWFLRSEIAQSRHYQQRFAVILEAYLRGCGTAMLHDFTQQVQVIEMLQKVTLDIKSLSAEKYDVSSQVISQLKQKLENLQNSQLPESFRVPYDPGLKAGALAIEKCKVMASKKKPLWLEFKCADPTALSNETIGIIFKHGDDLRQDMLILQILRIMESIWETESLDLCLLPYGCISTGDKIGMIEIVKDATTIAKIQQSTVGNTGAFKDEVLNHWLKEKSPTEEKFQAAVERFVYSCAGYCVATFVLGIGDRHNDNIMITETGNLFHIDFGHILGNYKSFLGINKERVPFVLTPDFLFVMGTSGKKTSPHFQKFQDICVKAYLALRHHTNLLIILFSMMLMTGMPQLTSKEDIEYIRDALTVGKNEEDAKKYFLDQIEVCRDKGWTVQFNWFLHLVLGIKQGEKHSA

Chain of PIK3CA (human) (P42336 whole entry, looked up): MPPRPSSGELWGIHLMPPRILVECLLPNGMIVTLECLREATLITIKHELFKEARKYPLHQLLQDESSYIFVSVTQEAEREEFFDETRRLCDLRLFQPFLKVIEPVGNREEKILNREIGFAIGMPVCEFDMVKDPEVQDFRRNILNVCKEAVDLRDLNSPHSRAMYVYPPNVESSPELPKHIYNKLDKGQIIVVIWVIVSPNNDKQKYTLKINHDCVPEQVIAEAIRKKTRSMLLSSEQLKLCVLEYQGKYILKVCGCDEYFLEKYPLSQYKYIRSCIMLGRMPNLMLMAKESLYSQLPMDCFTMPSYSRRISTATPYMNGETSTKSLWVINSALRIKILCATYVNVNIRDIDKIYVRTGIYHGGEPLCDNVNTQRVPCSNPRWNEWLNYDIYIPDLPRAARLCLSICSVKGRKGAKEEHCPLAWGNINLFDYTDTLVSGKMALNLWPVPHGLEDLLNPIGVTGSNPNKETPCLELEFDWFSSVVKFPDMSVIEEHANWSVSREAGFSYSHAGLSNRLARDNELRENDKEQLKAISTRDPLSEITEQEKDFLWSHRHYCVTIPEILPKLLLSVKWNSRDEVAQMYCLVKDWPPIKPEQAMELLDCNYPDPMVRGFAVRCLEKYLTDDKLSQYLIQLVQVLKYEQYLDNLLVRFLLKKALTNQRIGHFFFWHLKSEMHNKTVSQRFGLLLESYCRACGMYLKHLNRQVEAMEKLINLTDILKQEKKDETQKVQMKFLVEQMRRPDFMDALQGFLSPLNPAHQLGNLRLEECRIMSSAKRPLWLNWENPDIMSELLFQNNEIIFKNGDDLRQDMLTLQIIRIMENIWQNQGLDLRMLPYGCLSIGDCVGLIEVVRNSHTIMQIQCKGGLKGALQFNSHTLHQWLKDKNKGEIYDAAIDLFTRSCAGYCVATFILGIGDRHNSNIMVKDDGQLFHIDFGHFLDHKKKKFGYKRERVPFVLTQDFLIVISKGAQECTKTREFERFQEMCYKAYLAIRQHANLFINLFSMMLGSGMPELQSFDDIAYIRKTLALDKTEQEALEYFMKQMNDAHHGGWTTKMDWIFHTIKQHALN
Chain of PIK3CD (Human) (O00329 whole entry, looked up): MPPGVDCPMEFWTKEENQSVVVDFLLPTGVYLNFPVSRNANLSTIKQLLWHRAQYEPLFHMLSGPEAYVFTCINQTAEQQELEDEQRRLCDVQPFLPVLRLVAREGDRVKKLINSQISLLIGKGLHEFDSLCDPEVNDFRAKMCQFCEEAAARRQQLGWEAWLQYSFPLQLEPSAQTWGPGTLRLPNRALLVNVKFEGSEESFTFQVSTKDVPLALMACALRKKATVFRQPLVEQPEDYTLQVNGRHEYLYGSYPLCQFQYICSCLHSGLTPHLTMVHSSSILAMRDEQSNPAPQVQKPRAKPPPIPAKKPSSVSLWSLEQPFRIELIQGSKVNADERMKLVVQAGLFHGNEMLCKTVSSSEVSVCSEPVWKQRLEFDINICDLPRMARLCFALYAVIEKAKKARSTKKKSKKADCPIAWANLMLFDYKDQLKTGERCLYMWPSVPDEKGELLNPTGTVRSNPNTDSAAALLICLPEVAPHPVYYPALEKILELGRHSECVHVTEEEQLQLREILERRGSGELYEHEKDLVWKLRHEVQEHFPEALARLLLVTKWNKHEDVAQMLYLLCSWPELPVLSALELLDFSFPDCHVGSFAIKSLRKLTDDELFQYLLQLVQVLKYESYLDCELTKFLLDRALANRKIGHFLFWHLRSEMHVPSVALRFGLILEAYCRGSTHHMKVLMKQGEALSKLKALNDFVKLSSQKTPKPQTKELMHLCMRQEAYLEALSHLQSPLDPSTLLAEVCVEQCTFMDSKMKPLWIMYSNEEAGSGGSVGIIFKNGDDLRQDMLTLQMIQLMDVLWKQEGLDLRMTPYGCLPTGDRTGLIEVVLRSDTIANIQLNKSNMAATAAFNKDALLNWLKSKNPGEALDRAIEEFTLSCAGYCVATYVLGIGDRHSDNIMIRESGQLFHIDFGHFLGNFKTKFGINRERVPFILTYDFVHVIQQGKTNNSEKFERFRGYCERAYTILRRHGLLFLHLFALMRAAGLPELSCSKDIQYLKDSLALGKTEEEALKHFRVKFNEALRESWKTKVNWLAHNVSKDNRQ
Chain of PIK3CB (Human) (P42338 whole entry, looked up): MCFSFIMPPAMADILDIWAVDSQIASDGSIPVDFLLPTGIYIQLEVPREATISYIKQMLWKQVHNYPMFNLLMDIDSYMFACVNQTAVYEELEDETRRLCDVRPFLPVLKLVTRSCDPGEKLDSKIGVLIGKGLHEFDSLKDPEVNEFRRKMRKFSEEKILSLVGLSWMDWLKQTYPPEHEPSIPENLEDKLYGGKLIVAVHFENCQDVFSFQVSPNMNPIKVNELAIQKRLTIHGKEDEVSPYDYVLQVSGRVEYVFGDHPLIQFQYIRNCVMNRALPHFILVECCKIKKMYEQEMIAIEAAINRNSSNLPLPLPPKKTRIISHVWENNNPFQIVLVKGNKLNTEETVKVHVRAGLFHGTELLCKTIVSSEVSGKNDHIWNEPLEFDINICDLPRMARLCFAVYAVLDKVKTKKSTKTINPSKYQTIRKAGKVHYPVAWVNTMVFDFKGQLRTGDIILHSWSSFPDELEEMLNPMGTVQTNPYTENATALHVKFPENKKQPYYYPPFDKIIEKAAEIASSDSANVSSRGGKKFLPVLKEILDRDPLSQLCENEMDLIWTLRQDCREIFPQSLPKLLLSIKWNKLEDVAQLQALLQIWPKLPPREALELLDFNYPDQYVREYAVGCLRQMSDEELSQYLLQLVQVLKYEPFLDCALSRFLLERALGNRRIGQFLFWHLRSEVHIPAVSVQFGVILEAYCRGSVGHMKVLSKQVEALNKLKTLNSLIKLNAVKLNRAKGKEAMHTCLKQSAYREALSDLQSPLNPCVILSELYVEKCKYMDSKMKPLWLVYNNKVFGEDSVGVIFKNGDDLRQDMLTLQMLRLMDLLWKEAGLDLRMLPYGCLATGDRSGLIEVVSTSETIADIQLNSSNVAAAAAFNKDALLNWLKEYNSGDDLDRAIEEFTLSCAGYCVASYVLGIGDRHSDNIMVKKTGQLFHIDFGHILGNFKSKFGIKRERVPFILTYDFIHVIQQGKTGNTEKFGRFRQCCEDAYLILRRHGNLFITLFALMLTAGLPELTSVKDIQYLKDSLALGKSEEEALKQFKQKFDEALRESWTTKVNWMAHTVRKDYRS

The IC50 is the concentration that gives 50% inhibition. A lower IC50 goes with inhibition by little substance. Consider `N[C@H](CC(=O)N1CCN(c2nc(N3CCOCC3)nc(-n3c(C(F)F)nc4ccccc43)n2)CC1)Cc1ccccc1`, for which the concentration for half-maximal inhibition (IC50) was 26 µM in test [1], 2.8 µM in test [2], 7.1 µM in test [3] and greater than 100 µM in test [4].
For the compound `C[C@@H](N)CC(=O)N1CCN(c2nc(-c3cccc(O)c3)nc(N3CCOCC3)n2)CC1`, the IC50 in test [1] turned out to be 2.2 µM; in test [2], 1.3 µM; in test [3], 1.7 µM; in test [4] it was 16 µM.
For `O=C(C1CCNCC1)N1CCN(c2nc(-c3cccc(O)c3)nc(N3CCOCC3)n2)CC1`, the 50% inhibitory concentration (IC50) in test [1] turned out to be 1.5 µM; in test [2] it was 0.33 µM; in test [3] it was 3.2 µM; in test [4], 6.5 µM.
With `CCC(C)[C@H](N)C(=O)N1CCN(c2nc(N3CCOCC3)nc(-n3c(C(F)F)nc4ccccc43)n2)CC1` (some centres not stated), the figures for the IC50 in test [2], in test [3] and in test [4] were 1 µM, 0.067 µM and greater than 10 µM, respectively.
On to `CC(C)C[C@H](N)CC(=O)N1CCN(c2nc(-c3cccc(O)c3)nc(N3CCOCC3)n2)CC1`, for which the IC50 in test [1] was 21 µM; in test [2], 9.1 µM; in test [3], 19 µM; in test [4], greater than 100 µM.
Take `N[C@H](Cc1ccccc1)C(=O)N1CCN(c2nc(N3CCOCC3)nc(-n3c(C(F)F)nc4ccccc43)n2)CC1`: the half-maximal inhibitory concentration (IC50) amounted to 78 µM in test [3] and 58 µM in test [4].
Compound `N[C@@H](Cc1ccccc1)C(=O)N1CCN(c2nc(N3CCOCC3)nc(-n3c(C(F)F)nc4ccccc43)n2)CC1` gave a 50% inhibitory concentration (IC50) in test [4] greater than 100 µM.
On to `Cc1cc(C(C)Nc2ccccc2)c2nc(N3CCOCC3)cc(=O)n2c1` (configuration not stated), for which the IC50 is 5.07 µM in test [1] and 0.376 µM in test [2].
Consider `N[C@H](CC(=O)N1CCN(c2nc(-c3cccc(O)c3)nc(N3CCOCC3)n2)CC1)Cc1ccccc1`, for which the half-inhibitory concentration (IC50) in test [1] is 62 µM; in test [2], 17 µM; in test [3], 1.8 µM; in test [4] it was greater than 100 µM.
Consider `CSCC[C@H](N)C(=O)N1CCN(c2nc(N3CCOCC3)nc(-n3c(C(F)F)nc4ccccc43)n2)CC1`, for which the IC50 came out at 13 µM in test [1], 2.95 µM in test [2] and 0.483 µM in test [3].
`N[C@@H](Cc1ccccc1)C(=O)N1CCN(c2nc(-c3cccc(O)c3)nc(N3CCOCC3)n2)CC1`: the IC50 in test [1] was 19 µM; in test [2], 8.9 µM; in test [3], 0.19 µM; in test [4] it was greater than 100 µM.
Regarding `NCCCC(=O)N1CCN(c2nc(N3CCOCC3)nc(-n3c(C(F)F)nc4ccccc43)n2)CC1`, the concentration for half-maximal inhibition (IC50) in test [1] was 0.85 µM; in test [2], 0.077 µM; in test [3], 0.081 µM; in test [4] it was 7.5 µM.
The matching figures for `C[C@H](N)CC(=O)N1CCN(c2nc(N3CCOCC3)nc(-n3c(C(F)F)nc4ccccc43)n2)CC1`: 3 µM, 0.11 µM, 1.3 µM and 7.5 µM.
Take `O=C(C[C@H]1CCCN1)N1CCN(c2nc(-c3cccc(O)c3)nc(N3CCOCC3)n2)CC1`: the IC50 in test [1] was 4.4 µM; in test [2], 0.026 µM; in test [3], 1.6 µM; in test [4] it was 5.5 µM.

For the origin of these results see the Kinase Knowledgebase extract (Sharma et al. 2016).
